Type in all cases: physicochemical
The nature of series [1]: Wear life (T 1/2) of polymer plate in xenon fade meter, JIS L0843 and JIS B7754. Conditions: time until color density decreases to one-half the initial value. An excerpt:
(§1) 0.04 Parts of fulgimide compounds shown in Table 3, 70 parts of tetraethyleneglycol dimethacrylate, 15 parts of triethyleneglycol dimethacrylate, 10 parts of glycidyl methacrylate, 5 parts of 2-hydroethylmethacrylate and 1 part of perbutyl ND as a polymerization catalyst, were sufficiently mixed together until they were completely dissolved. The mixture solution was poured into a mold constituted by a glass plate and a gasket of an ethylene/vinyl acetate copolymer, and its temperature was elevated in an air oven from 35° C. to 90° C. over a period of 20 hours to effect the polymerization. After the polymerization, the polymer was taken out from the glass mold.
(§2) The obtained polymer plate was irradiated with xenon light by using a Xenon Long-Life Fade Meter FAL-25AX-HC (output: 2.5 KW, source of light: xenon long-life arc lamp) manufactured by Suga Shikenki Co., in order to measure a maximum absorption wavelength in a state of developing color. The initial color tone was observed by eyes, and YI of the samples was measured by using a color-difference meter (Model SM-4) manufactured by Suga Shikenki Co. The wear life (T 1/2) was also measured in compliance with JIS L0843 and JIS B7754. T 1/2 is defined to be the time until the color density decreases down to one-half the initial value when the polymer plate is irradiated with light by using the fade meter.
(§3) For the purpose of comparison, the fulgimide compounds represented by the following formulas (A) to (I) were also used to prepare polymer plates to measure their properties in the same procedure as described above. [drawing 113]

A short description of series [2]: Developed color of polymer plate under xenon light (color density, maximum absorption wavelength). Conditions: for Color density: 0.04 parts in polymer plate; for λ max: state of developing color, polymer plate.
Source text: as §1, §2, §3

Series [3] in a line: Initial color of polymer plate (visual observation, YI by color-difference meter). As to conditions: for Initial color, visually observed: before irradiation; for Initial color, YI: color-difference meter SM-4.
Source text: as §1, §2, §3

For the compound `CCN1C(=O)C2=C(C)c3ccsc3C3(C4CC5CC(C4)CC3C5)C2C1=O` (stereo not drawn) [A, reference compound], the T1/2 in series [1] came out at 100 h. In addition, in series [2], the Color density is recorded as 0.68 and the λ max turned out to be 540 nm. In addition, in series [3], the “Initial color, visually observed” value was “yellow” and the “Initial color, YI” value worked out at 10.03.
In series [1], `CC1=C2C(=O)N(CC#N)C(=O)C2C2(c3oc(-c4ccccc4)cc31)C1CC3CC(C1)CC2C3` (stereo not drawn) [B, reference compound] registered a T1/2 of 95 h. Moreover, in series [2], the Color density was 0.75 and the λ max turned out to be 550 nm. Moreover, in series [3], the “Initial color, visually observed” value is given as “yellow” and the “Initial color, YI” value was determined as 10.65.
For `COc1ccc(-c2cc3c(o2)C2(C4CC5CC(C4)CC2C5)C2C(=O)N(CC#N)C(=O)C2=C3C)cc1` (stereo not drawn) [C, reference compound] the same measures were 95 h, 0.77, 560 nm, “yellow” and 17.56.
For the compound `N#CN1C(=O)C2=C(C3CC3)c3ccsc3C3(C4CC5CC(C4)CC3C5)C2C1=O` (stereo not drawn) [Compound 1, N-Cyano-4-cyclopropyl-6,7-dihydrospirobenzothiophenedicarboxyimide-7,2'-tricyclo[3.3.1.1^3,7]decane], in series [1], the T1/2 is 400 h. In series [2], the Color density worked out at 0.65 and the λ max is recorded as 615 nm. In addition, in series [3], the “Initial color, visually observed” value was “colorless” and the “Initial color, YI” value was found to be 1.85.
For `CC(=O)N1C(=O)C2=C(C3CC3)c3ccsc3C3(C4CC5CC(C4)CC3C5)C2C1=O` (stereo not drawn) [Compound 2, N-Acetyl-4-cyclopropyl-6,7-dihydrospirobenzothiophenedicarboxyimide-7,2'-tricyclo[3.3.1.1^3,7]decane] the same measures were 140 h, 1.20, 560 nm, “colorless” and 2.01.
For `O=C1C2=C(C3CC3)c3ccsc3C3(C4CC5CC(C4)CC3C5)C2C(=O)N1C(=O)c1ccccc1` (stereo not drawn) [Compound 3, N-Benzoyl-4-cyclopropyl-6,7-dihydrospirobenzothiophenedicarboxyimide-7,2'-tricyclo[3.3.1.1^3,7]decane] the same measures were 135 h, 0.90, 570 nm, “colorless” and 3.84.
The compound `CC(=O)N1C(=O)C2=C(C3CC3)c3cc(C)sc3C3(C4CC5CC(C4)CC3C5)C2C1=O` (stereo not drawn) [Compound 4, N-Acetyl-4-cyclopropyl-6,7-dihydro-2-methylspirobenzothiophenedicarboxyimide-7,2'-tricyclo[3.3.1.1^3,7]decane] registered a T1/2 in series [1] of 140 h. In series [2], this compound displayed a Color density of 1.43 and a λ max of 562 nm. In addition, in series [3], the “Initial color, visually observed” value was “colorless” and the “Initial color, YI” value is given as 2.15.
For `CC1=C2C(=O)N(C#N)C(=O)C2C2(c3oc(-c4ccccc4)cc31)C1CC3CC(C1)CC2C3` (stereo not drawn) [Compound 5] the same measures were 260 h, 1.12, 603 nm, “colorless” and 3.96.
For `CC(C)C1=C2C(=O)N(S(C)(=O)=O)C(=O)C2C2(c3c1ccn3C)C1CC3CC2CC(Cl)(C3)C1` (stereo not drawn) [Compound 6, 5'-Chloro-6,7-dihydro-N-methyl-N'-methylsulfonyl-4-isopropylspiroindoledicarboxyimide-7,2'-tricyclo[3.3.1.1^3,7]decane] the same measures were 110 h, 0.95, 601 nm, “pale yellow” and 4.85.

Values taken from patent US5631382A, “Fulgimide compound” (Tokuyama Corporation, priority 1994, dated 1997).
